# Measurements taken from patent publication US10532109B2, “Peptide-DNA chimeras for treatment of HER overexpressing cancers” (ARIZONA BOARD OF REGENTS ON BEHALF OF ARIZONA STATE …, priority 2016, dated 2020).
# “Also recorded” adds a separate entry of the source. Read-outs that look alike come from different tables or passages of the source.
# Experiments:
# [1] = tested on: BT474 human breast cancer cells (overexpression of HER2); assay: Cancer cell inhibition assay (MTT), BT474; format: cell-based; conditions: for inhibition at 0.32 µM: BT-474, 320 nM doxorubicin, free or as 6.4 nM IV (1:50 III-doxorubicin); for inhibition at 0.32 µM / inhibition at 0.64 µM: read-out: inhibition of BT474 cell growth; for inhibition at 0.64 µM: BT-474, 640 nM doxorubicin, free or as 12.8 nM IV
# Description: Exponentially growing BT474 cells and MDA-MB-231 cells were harvested and plated in 96-well plates at a concentration of 2×10^4 cells/well for BT474 cells and 5×10^4 cells/well for MDA-MB231 cells. […] Then 20 μL of MTT (5 mg/mL) was added to each well and the plates were incubated at 37° C. for 4 hours. The supernatant was discarded, and 100 μL of DMSO was added to each well. The absorbance was recorded at 490 nm after 15 minutes. Inhibition of cell growth was obtained by the following formula: Inhibition (%)=(ODTreatment−ODbackground)/(ODNagative control−ODbackground)×100%
# [2] = tested on: MDA-MB-231 human breast cancer cells (low expression of HER2 receptor); assay: Cancer cell inhibition assay (MTT), MDA-MB-231; format: cell-based; conditions: 48, 72, 96 h
# Description: BT474 human breast cancer cells (ATCC® HTB-20™, overexpression of HER2) and MDA-MB-231 human breast cancer cells (ATCC® HTB-26™, low expression of HER2 receptor) were cultured at 37° C. in a 5% CO2 atmosphere and grown in Gibco® RPMI 1640 medium supplemented with 10% fetal bovine serum (FBS) and 1% antibiotic-antimycotic mix antibiotic supplement before use.
# Exponentially growing BT474 cells and MDA-MB-231 cells were harvested and plated in 96-well plates at a concentration of 2×10^4 cells/well for BT474 cells and 5×10^4 cells/well for MDA-MB231 cells. […] Then 20 μL of MTT (5 mg/mL) was added to each well and the plates were incubated at 37° C. for 4 hours. The supernatant was discarded, and 100 μL of DMSO was added to each well. The absorbance was recorded at 490 nm after 15 minutes. Inhibition of cell growth was obtained by the following formula: […]
# Data are reported as the mean of three independent experiments, each run in quintuplicate.
# BT474 cells = assay: HER2 binding assay (fluorescence microscopy), BT474; format: cell-based, human; conditions: 1 μM; 1 hour
# Description: (§1) BT474 cells and MDA-MB-231 cells were grown on glass bottom microwell disks at a cell density of approximately 10,000 cells/well at 37° C. for 48 hours. […] Then the cells were stained using 2.5 μg/mL DAPI (Invitrogen) for 30 minutes after the cells were rinsed with phosphate buffered saline (PBS) for two times. Finally, the cells were fixed with 4% paraformaldehyde for 10 minutes. The fluorescent images were obtained using a fluorescence microscope (Nikon Ti-U, Japan) with red and green filters. Thereafter, all images were recorded and the target cells counted using a 40× oil objective. To ensure accurate intensity measurements, the exposure time (3000 ms) and laser time were kept the same. The mean pixel intensity within the region of interest was calculated. Data are reported as the mean of three independent experiments, each run in quintuplicate. The data was expressed as mean±SD.
# MDA-MB-231 cells = assay: HER2 binding assay (fluorescence microscopy), MDA-MB-231; format: cell-based, human; conditions: 1 μM; 1 hour
# Description: as §1
smiles,measurement,setting,value
COc1cccc2c1C(=O)c1c(O)c3c(c(O)c1C2=O)C[C@@](O)(C(=O)CO)C[C@@H]3O[C@H]1C[C@H](N)[C@H](O)[C@H](C)O1 [doxorubicin],inhibition at 0.32 µM,[1]; 48 h,19%
same,inhibition at 0.32 µM,[1]; 72 h,43%
same,inhibition at 0.32 µM,[1]; 96 h,44%
same,inhibition at 0.64 µM,[1]; 48 h,36%
same,inhibition at 0.64 µM,[1]; 72 h,68%
same,inhibition at 0.64 µM,[1]; 96 h,78%
same,inhibition at 0.16 µM,"[1]; BT-474, read-out: average inhibition of BT474 cell growth",10%
same,fold higher average percent inhibition of MDA-MB-231 by doxorubicin than IV,[2]; 160 nM doxorubicin concentration,1.0-2.3 fold
same,fold higher average percent inhibition of MDA-MB-231 by doxorubicin than IV,[2]; 320 nM doxorubicin concentration,1.3-2.0 fold
same,fold higher average percent inhibition of MDA-MB-231 by doxorubicin than IV,[2]; 640 nM doxorubicin concentration,1.6-2.0 fold
same,"binding ability to BT474 cells (fluorescence on cell surface, in words)",BT474 cells,relatively weak fluorescence intensity; also recorded: relatively weak ability
same,binding selectivity between BT474 and MDA-MB-231 cells,BT474 cells,did not show any binding selectivity; also recorded: did not shown any selectivity
same,"binding ability to MDA-MB-231 cells (fluorescence on cell surface, in words)",MDA-MB-231 cells,relatively weak fluorescence intensity; also recorded: relatively weak ability
